Source: US20020028918A1, “Styryl dyes” (KABUSHIKI KAISHA HAYASHIBARA SEIBUTSU KAGAKU KENKYUJO, priority 2000, published 2002)

Assays:
[1] = Light resistance of styryl dye thin layer under xenon lamp exposure; format: physicochemical; settings: thin layer on glass, 500 W xenon lamp 25 min, transmittance at 600 nm
Method: Light-resistance Improvement of Styryl Dyes
Thereafter, in the usual manner, a prescribed amount of the resulting solution was dropped on either surface of a polished glass substrate, 5 cm×5 cm, while the glass substrate was rotated at a rotation rate of 1,000 rpm for one minute to uniformly coat the solution thereupon, and sequentially blown with hot air and cold air to dry the coated solution.
The resulting glass substrates coated with the styryl dyes were measured for transmittance (T0) at a wavelength of 600 nm, and then exposed with light for 25 min using a 500 W xenon lamp. Immediately after that, the resulting substrates were remeasured for transmittance (T) at a wavelength of 600 nm, and the transmittance of T and T0 dye substrated for the Equation 1 to calculate the residual percentage (%). In parallel, control systems, which 15 (mg) of the conventional compound represented by Chemical Formula 44 was dissolved to TFP with or without two mg of the azo organic metal complex represented by Chemical Formula 38 as a light-resistant improver, were provided and treated similarly as above. [formula]

[2] = Thermal property by DTA and TGA (decomposition point)
Text: Thermal Property of Cyanine Dye
An adequate amount of any one of the styryl dyes of the present invention in Table 1 as test specimens was placed in a vessel and subjected to conventional differential thermal analysis (hereinafter abbreviated as “DTA”) and thermogravimetric analysis (hereinafter abbreviated as “TGA”) using “MODEL TG/DTA 220”, a digital thermo analyzer commercialized by Seiko Instruments Inc., Tokyo, Japan, to determine their melting points, i.e., temperatures at which the styryl dyes as test specimens begin to absorb heat on TGA, and decomposition points, i.e., temperatures at which the styryl dyes as test specimens begin to lose their weight on DTA. In parallel, the conventional related compound represented by Chemical Formula 44 was analyzed similarly as above. […] In TGA and DTA, the environmental temperature was set to an increasing temperature mode at a rate of 10° C./min.

- Residual percentage of dye (%) ([1]; no light-resistant improver added (Formula 26 is itself combined with azo organic metal complex anion)): 3.2%
- Residual percentage of dye (%) ([1]; with addition of the azo organic metal complex of Chemical Formula 38): 89.5%
- Decomposition point (° C.) ([2]; DTA/TGA, MODEL TG/DTA 220, temperature increasing at 10° C./min): 236.1 °C
Compound: CN(C)c1ccc(C=CC2=[N+](C)c3ccc(Cl)cc3C2(C)C)cc1.Cc1ccc(S(=O)(=O)[O-])cc1 [Chemical Formula 44]
- Decomposition behaviour around the decomposition point ([2]; TGA/DTA, 10° C./min): very slowly decomposed at around the decomposition point
